Activity calls are given as the source filed them. No cut-off for these calls is given here.
How the values were obtained:
[1] = system: DU-145; test: Antiproliferative activity against human DU-145 cells assessed as inhibition of cell proliferation incubated for 3 days by CCK-8 assay; assay type: functional, cell-based; conditions: DU-145, 72 h
[2] = Cytotoxicity against human RWPE-1 cells assessed as inhibition of cell proliferation incubated for 3 days by CCK-8 assay; assay type: toxicity, cell-based
[3] = system: CWR22R; test: Antiproliferative activity against human 22Rv1 cells assessed as cell growth inhibition at 2 to 8 uM incubated for 5 days by microplate reader analysis; assay type: functional, cell-based; conditions: dose 2-8 µM, time 5.0 day
[4] = system: DU-145; test: Induction of cell cycle arrest in human DU-145 cells assessed as accumulation of cells at G1 phase at 1 uM incubated for 24 hrs by propidium iodide based flow cytometric analysis (Rvb= 53.46%); assay type: functional
[5] = system: DU-145; test: Induction of cell cycle arrest in human DU-145 cells assessed as accumulation of cells at G1 phase at 4 uM incubated for 24 hrs by propidium iodide based flow cytometric analysis (Rvb= 53.46%); assay type: functional
[6] = system: DU-145; test: Induction of cell cycle arrest in human DU-145 cells assessed as accumulation of cells at S phase at 2 uM incubated for 24 hrs by propidium iodide based flow cytometric analysis (Rvb= 29.02%); assay type: functional
[7] = system: DU-145; test: Induction of cell cycle arrest in human DU-145 cells assessed as accumulation of cells at S phase at 4 uM incubated for 24 hrs by propidium iodide based flow cytometric analysis (Rvb= 29.02%); assay type: functional
[8] = system: CWR22R; test: Induction of cell cycle arrest in human 22Rv1 cells assessed as accumulation of cells at G1 phase at 1 uM incubated for 24 hrs by propidium iodide based flow cytometric analysis (Rvb= 55.28%); assay type: functional
[9] = Acute toxicity in ICR mouse assessed as abnormal body weight change at 1000 to 10000 mg/kg,po and measured upto 14 days; assay type: organism-based; conditions: in vivo, 336 h, dose 1000-10000 mg/kg, time < 14 day
[10] = system: DU-145; test: Antitumor activity against human DU-145 xenografted in BALB/c nude mouse assessed as tumor growth inhibition at 100 mg/kg,po qd for 21 days; assay type: functional, organism-based; conditions: time 21.0 day
[11] = system: DU-145; test: Antitumor activity against human DU-145 xenografted in BALB/c nude mouse as downregulation of p-4E-BP1 level in tumor at 100 to 200 mg/kg,po administrated once daily for 21 days by Western blot analysis; assay type: functional, organism-based; conditions: dose 100-200 mg/kg, time 21.0 day
[12] = system: DU-145; test: Antitumor activity against human DU-145 xenografted in BALB/c nude mouse as upregulation of p27 level in tumor at 100 to 200 mg/kg,po administrated once daily for 21 days by Western blot analysis; assay type: functional, organism-based; conditions: dose 100-200 mg/kg, time 21.0 day

Cl.O=C(c1ccc(Nc2ncc(F)c(-c3ccc4scnc4c3)n2)nc1)N1CCNCC1
IC50 [1]: 1.26 µM
IC50 at 3 days [2]: 25 µM
Activity [3]: Active
Activity [4]: 54.77%
Activity [5]: 68.51%
Activity [6]: 26.15%
Activity [7]: 19.37%
Activity [8]: 60.51%
Activity [9]: Non-Toxic
Activity [10]: Active
Activity [11]: Active
Activity [12]: Active
